A short description of assay [1]: Nitric oxide radical scavenging assay. The settings on record: concentration inhibiting 25% of radicals. Here is the method:
All M. diffusa samples were tested for their radical scavenging activity by four different in vitro chemical assays targeted against the biological super oxide anion (O2^−) and nitric oxide (NO) radicals, and the synthetic neutral DPPH and cationic ABTS^+ radicals.

In assay [2] the target is T1, butyrylcholinesterase (BChE) from equine serum (Equus caballus, UniProt P81908).
T1 construct: butyrylcholinesterase (BChE) from equine serum (lyophilized powder); purchased Sigma-Aldrich (Milan, Italy); host or cells: equine serum
Nature of the assay: biochemical. An excerpt:
(§1) The two prevalent forms of cholinesterase in a healthy brain are acetylcholinesterase (AChE) and butyrylcholinesterase (BChE). Ellman’s reaction to analyse the AChE and BChE inhibition by the samples was used as described before.

In the next assay the test system is Oncopeltus fasciatus. Further details: method as in earlier work. The settings on record: cited from earlier work.
The target in assay [3] is T2, acetylcholinesterase (AChE) from Electrophorus electricus (Electrophorus electricus, UniProt O42275).
T2 construct: purchased Sigma-Aldrich (Milan, Italy) type VI-s
The assay is described as follows: biochemical.
Description: as §1

The test system of assay [4] is aged as well as scopolamine-induced amnesic rats. Further details: method as in doi:10.31024/ajpp.2018.4.6.17. The settings on record: cited from earlier work.
A further assay concerns AChE. Further details: method as in doi:10.1016/j.foodchem.2010.10.050. The settings on record: isolated from Micromeria cilicica; cited from earlier work.
In another assay the test system is BChE. Also noted: method as in doi:10.1016/j.foodchem.2010.10.050. Conditions: isolated from Micromeria cilicica; cited from earlier work.
[5] abbreviates: read-out: AChE IC50 (converted).

Structures are written as SMILES. Where two headings read alike, the source gives them in different places.

T2 sequence (O42275 24-633): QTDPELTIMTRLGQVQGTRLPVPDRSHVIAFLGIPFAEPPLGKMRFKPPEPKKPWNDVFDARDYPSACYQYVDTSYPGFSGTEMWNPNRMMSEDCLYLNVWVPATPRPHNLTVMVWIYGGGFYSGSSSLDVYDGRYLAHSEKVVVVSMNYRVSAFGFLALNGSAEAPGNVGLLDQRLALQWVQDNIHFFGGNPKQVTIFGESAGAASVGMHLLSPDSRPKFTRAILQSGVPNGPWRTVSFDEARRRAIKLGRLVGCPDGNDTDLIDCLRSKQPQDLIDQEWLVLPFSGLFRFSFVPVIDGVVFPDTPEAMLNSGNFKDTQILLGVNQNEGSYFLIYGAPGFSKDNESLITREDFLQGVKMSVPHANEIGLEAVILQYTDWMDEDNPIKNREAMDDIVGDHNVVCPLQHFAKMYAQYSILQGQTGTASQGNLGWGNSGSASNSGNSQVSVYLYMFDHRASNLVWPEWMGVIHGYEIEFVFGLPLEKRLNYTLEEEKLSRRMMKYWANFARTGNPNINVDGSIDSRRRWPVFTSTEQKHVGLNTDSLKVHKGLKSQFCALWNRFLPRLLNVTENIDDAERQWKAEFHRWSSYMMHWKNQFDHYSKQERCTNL
T1 sequence (P81908 whole entry): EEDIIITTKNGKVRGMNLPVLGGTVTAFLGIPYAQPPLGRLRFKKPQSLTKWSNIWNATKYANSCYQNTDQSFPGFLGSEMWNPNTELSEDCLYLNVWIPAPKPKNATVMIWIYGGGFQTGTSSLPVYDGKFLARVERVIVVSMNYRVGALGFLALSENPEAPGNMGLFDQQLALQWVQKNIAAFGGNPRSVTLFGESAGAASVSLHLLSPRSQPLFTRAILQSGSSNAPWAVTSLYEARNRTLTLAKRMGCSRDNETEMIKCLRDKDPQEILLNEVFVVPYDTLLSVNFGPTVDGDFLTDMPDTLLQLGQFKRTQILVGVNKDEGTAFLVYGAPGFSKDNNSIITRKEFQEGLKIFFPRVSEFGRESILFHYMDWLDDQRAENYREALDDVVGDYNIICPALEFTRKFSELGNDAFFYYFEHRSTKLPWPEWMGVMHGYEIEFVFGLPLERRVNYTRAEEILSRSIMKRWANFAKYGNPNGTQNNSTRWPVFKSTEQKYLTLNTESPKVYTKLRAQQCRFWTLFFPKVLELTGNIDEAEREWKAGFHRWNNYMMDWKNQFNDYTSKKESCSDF

Consider `O=C1O[C@H]([C@@H](O)CO)C(O)=C1O` [ascorbic acid], for which, in assay [1], the “NO IC25” value came out at 4780 ± 90 µg/mL.

In general, inhibition refers to the drop in the measured response relative to a control, in per cent. In the case of `COc1ccc2c3c1O[C@H]1C[C@@H](O)C=C[C@@]31CCN(C)C2` [galantamine], the inhibition at 60 µg/mL in assay [2] (read-out: BChE inhibition) was 67.3 ± 2.61%.

As for `CC(=O)O[C@H]1[C@H]2O[C@@]2(C)CC[C@H]1C(C)C` [(−)-(1S,2R,3R,4S)-1,2-epoxy-1-methyl-4-(1-methylethyl)-cyclohex-3-yl acetate], the insecticidal activity result with Oncopeltus fasciatus was “significant insecticidal activity”.

One may read the IC50 as the concentration at which inhibition is half-maximal. `C=C(C)[C@@H]1CC[C@]2(C(=O)O)CC[C@]3(C)[C@H](CC[C@@H]4[C@@]5(C)CC[C@H](O)C(C)(C)[C@@H]5CC[C@]43C)[C@@H]12` [betulinic acid]: in assay [3] (setting [5]), the IC50 is 19.7 µM. Besides, the “effect on learning and memory” value in assay [4] was “improves learning and memory”.

For the compound `CC1(C)CC[C@]2(C(=O)O)CC[C@]3(C)C(=CC[C@@H]4[C@@]5(C)C[C@@H](O)[C@H](O)C(C)(C)[C@@H]5CC[C@]43C)[C@@H]2C1` [maslinic acid], the IC50 in assay [2] is 10.6 µM; in assay [3], 46.5 µM.

Regarding `C[C@H]1[C@H](C)CC[C@]2(C(=O)O)CC[C@]3(C)C(=CC[C@@H]4[C@@]5(C)CC[C@H](O)C(C)(C)[C@@H]5CC[C@]43C)[C@H]12` [Ursolic acid], the IC50 with AChE was 93.8 µM; in assay [2] (read-out: BChE IC50), 83.5 ± 0.94 µM; in assay [3] (setting [5]), 85.3 ± 5.85 µM; in the assay on BChE, 41.1 µM.
